System: healthy adult subjects
Experiment: 002 Study: next-day residual sleepiness (KSS, PVT, DSST) and Waketime Questionnaire
Assay type: in vivo, human
Protocol: All subjects were administered PD assessments, including the Karolinska Sleepiness Scale (KSS), Digit Symbol Substitution Test (DSST), and Psychomotor Vigilance Test (PVT) in order to assess acute sleepiness in the interval between dosing and bedtime, as well as next-day residual sleepiness and the level of alertness and ability to concentrate. In addition, a Waketime Questionnaire was administered daily in order to assess quality of sleep on the previous night.
PD effects were assessed by evaluating postdose and next-day functioning on the KSS, DSST, and the PVT, and by self-report of sleep quality on the Waketime Questionnaire. The KSS, DSST, and PVT were performed starting Day-1 at 15 minutes before habitual bedtime; on Days 1 to 15 within 15 minutes after habitual waketime, and at 1, 2, 4, 8, and 12 hours after habitual waketime, and on Days 1 to 14 at 15 minutes predose and 15 minutes postdose. 24-hour Holter recordings were started 30 minutes before bedtime on Day-2 and just prior to dosing on Day 14. Extractions from these recordings were used to conduct ECG analyses, including the HPQT analysis. Waketime Questionnaires were administered on Day 1 to Day 19.
The KSS, PVT, and DSST were administered on each treatment day in the evening predose and postdose to assess the acute effect of compound A on sleepiness. For these timepoints, the daily 15 minutes predose values on the KSS, DSST, and PVT served as a baseline for that day's 15 minutes postdose value (daily baseline). The KSS, PVT, and DSST were also administered throughout the daytime hours subsequent to each dosing evening to assess the effect of compound A on next-day residual sleepiness. For these timepoints, the assessments taken at Day 1, 15 minutes and 1, 2, 4, 8, and 12 hours after habitual waketime served as the baseline for the assessments taken at the corresponding times after habitual waketime on Day 2 to Day 15 (time-matched baseline). Waketime Questionnaires were administered on Day 1 through Day 19 in the morning hours. The predose value on Day 1 was used as the baseline. The difference between placebo and each dose of compound A in change from baseline at each timepoint was calculated along with 95% confidence intervals (CIs). Potential dose-response and time trend were explored as data allowed.

Q: For Cc1ncc(OC[C@@]2(c3cccc(F)c3)C[C@H]2C(=O)Nc2ccc(F)cn2)c(C)n1 [Compound A, (1R,2 S)-2-(((2,4-dimethylpyrimidin-5-yl)oxy)methyl)-2-(3-fluorophenyl)-N-(5-fluoropyridin-2-yl) cyclopropanecarboxamide], which “next day residual sleepiness as measured by KSS, PVT, DSST” value (2.5-75 mg once daily for 14 days) is on record?
A: dose-related increases in both the magnitude and duration

Q: What about the “next-day residual sleepiness vs placebo (KSS, PVT, DSST)” value (2.5-mg and 5-mg dose groups, any time, any treatment day) of the same molecule?
A: no meaningful difference from placebo

Q: And the “next-day residual sleepiness vs placebo (KSS)” value (10-mg dose group, within 2 hours after waketime, Day 2 through Day 4)?
A: Slight differences from placebo

Q: And the “increase in next-day residual sleepiness” value (25-mg dose group, within 2 hours after waketime)?
A: more consistent and slightly larger than in the 10-mg dose group

Q: And the “next-day residual sleepiness vs placebo, all assessments” value (50-mg and 75-mg dose groups)?
A: consistent and relatively large differences from placebo

Q: What about the “Waketime Questionnaire: changes in nighttime sleep” value (any dose group) of the same molecule?
A: None of the items on the Waketime Questionnaire indicated a systematic pattern of changes in nighttime sleep

Q: And the “measures of sleepiness vs placebo” value (by 12 hours after waketime, any dose group, any day)?
A: no differences from placebo

— patent US11026944B2, “Compositions and methods for treating insomnia” (Eisai R&D Management Co., Ltd., priority 2014, dated 2021)
